According to publication PMC4604124, “In Vitro Characterization of the Pharmacological Properties of the Anti-Cancer Chelator, Bp4eT, and Its Phase I Metabolites” (PLoS ONE, 2015):
Where “and” joins values, the source holds several entries; their conditions need not be identical. Identical values can stand only once. Like-named read-outs stand apart in the source and are kept apart here.

What was measured:
H9c2 cardiomyoblasts = assay: MTT cytotoxicity assay, H9c2 cells; format: cell-based, rat; details: for IC50: MTT, read-out: IC50
How it was run: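 Cells were seeded 24 h at 37°C (MCF-7 5,000, HCT116 and A549 2,000, H9c2 10,000 cells/well; H9c2 then given serum- and pyruvate-free DMEM for 24 h) and exposed to compounds for 72 h in medium with 0.1% DMSO. MTT absorbance was read at 570 nm minus 690 nm; IC50 came from viability relative to untreated controls.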

[1] = system: 3T3 mouse embryo fibroblasts; assay: MTT cytotoxicity assay, 3T3 cells; format: cell-based; details: for IC50: MTT
How it was run: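 3T3 fibroblast viability was measured with an MTT assay, reading optical density at λ = 570 nm with λ = 690 nm background subtracted on a Tecan Infinite 200M. Results were expressed as a percentage of untreated controls (100%) and reported as mean ± SD. IC50 values came from CalcuSyn 2.0 after a 72 h/37°C incubation.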

[2] = Ascorbate oxidation assay (redox activity of iron complexes); format: biochemical;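 as to %Fe 30min (ascorbate oxidation, Fe = 100%), průměr (mean): IBE 1 means iron-binding equivalents giving fully coordinated iron-chelator complexes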;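 as to %Fe 30min (ascorbate oxidation, Fe = 100%), single replicates: IBE 1 means iron-binding equivalents giving fully coordinated iron-chelator complexes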;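 as to %Fe 30min: ascorbate oxidation as % of the Fe control (Fe 100%): IBE 0.1 means iron-binding equivalents with iron in excess over chelator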

CCNC(=S)NN=C(c1ccccc1)c1ccccn1 [Bp4eT, 2-benzoylpyridine 4-ethyl-3-thiosemicarbazone]
MTT, relative to control (0 = 100) (H9c2 cardiomyoblasts; H9c2, 10 000 b/j, 3 nM, průměr (mean)): 99.21
MTT, relative to control (0 = 100) (H9c2 cardiomyoblasts; H9c2, 10 000 b/j, 3 nM, single experiment (date)): 102.894 and 97.5415 and 98.1925 and 99.1728 and 98.234
MTT, relative to control (0 = 100) (H9c2 cardiomyoblasts; H9c2, 10 000 b/j, 10 nM, průměr (mean)): 97.95
MTT, relative to control (0 = 100) (H9c2 cardiomyoblasts; H9c2, 10 000 b/j, 10 nM, single experiment (date)): 93.4128 and 99.1411 and 98.6466 and 98.7917 and 99.7545
MTT, relative to control (0 = 100) (H9c2 cardiomyoblasts; H9c2, 10 000 b/j, 30 nM, průměr (mean)): 93.46
MTT, relative to control (0 = 100) (H9c2 cardiomyoblasts; H9c2, 10 000 b/j, 30 nM, single experiment (date)): 89.8997 and 94.1191 and 90.5168 and 97.6473 and 95.1275
MTT, relative to control (0 = 100) (H9c2 cardiomyoblasts; H9c2, 10 000 b/j, 100 nM, průměr (mean)): 83.34
MTT, relative to control (0 = 100) (H9c2 cardiomyoblasts; H9c2, 10 000 b/j, 100 nM, single experiment (date)): 88.1519 and 73.0922 and 83.4003 and 88.2 and 83.8639
MTT, relative to control (0 = 100) (H9c2 cardiomyoblasts; H9c2, 10 000 b/j, 300 nM, průměr (mean)): 64.46
MTT, relative to control (0 = 100) (H9c2 cardiomyoblasts; H9c2, 10 000 b/j, 300 nM, single experiment (date)): 78.5818 and 47.7898 and 54.7281 and 65.2971 and 75.8815
MTT, relative to control (0 = 100) (H9c2 cardiomyoblasts; H9c2, 10 000 b/j, 1000 nM, průměr (mean)): 35.85
MTT, relative to control (0 = 100) (H9c2 cardiomyoblasts; H9c2, 10 000 b/j, 1000 nM, single experiment (date)): 36.8685 and 33.593 and 34.7888 and 38.1329
MTT, relative to control (0 = 100) (H9c2 cardiomyoblasts; H9c2, 10 000 b/j, 3000 nM, průměr (mean)): 31.03
MTT, relative to control (0 = 100) (H9c2 cardiomyoblasts; H9c2, 10 000 b/j, 3000 nM, single experiment (date)): 33.7493 and 30.5962 and 27.1956 and 32.5967
IC50 (H9c2 cardiomyoblasts; H9c2, 10 000 b/j, single experiment (date)): 0.36 µM and 0.438 µM and 0.587 µM
IC50 (H9c2 cardiomyoblasts; Rattus norvegicus, H9c2, 72 h, H9c2, 72 h/37°C, mean ± SD, n ≥ 4): 0.524 ± 0.157 µM
IC50 (H9c2 cardiomyoblasts; Rattus norvegicus, H9c2, H9c2, 10 000 b/j, průměr (mean)): 0.524 µM
IC50 (H9c2 cardiomyoblasts; Rattus norvegicus, H9c2, H9c2, 10 000 b/j, single experiment (date)): 0.713 µM
IC50 ([1]; 3T3, 10 000 b/j, individual experiments, read-out: IC50): 1.08 µM and 1.7 µM and 1.48 µM
MTT viability (0 = 100) ([1]; 3T3, 10 000 b/j, koncentrace 3 nM, individual experiments): 107.858 and 101.159 and 95.977
MTT viability (0 = 100) ([1]; 3T3, 10 000 b/j, koncentrace 10 nM, individual experiments): 95.2009 and 97.9751 and 101.968 and 103.897
MTT viability (0 = 100) ([1]; 3T3, 10 000 b/j, koncentrace 30 nM, individual experiments): 82.5017 and 95.1437 and 97.4935 and 93.6042
MTT viability (0 = 100) ([1]; 3T3, 10 000 b/j, koncentrace 100 nM, individual experiments): 72.3252 and 75.1668 and 68.1869
MTT viability (0 = 100) ([1]; 3T3, 10 000 b/j, koncentrace 300 nM, individual experiments): 69.1649 and 63.247 and 72.6411
MTT viability (0 = 100) ([1]; 3T3, 10 000 b/j, koncentrace 1000 nM, individual experiments): 57.0662 and 64.2452 and 55.7111
MTT viability (0 = 100) ([1]; 3T3, 10 000 b/j, koncentrace 3000 nM, individual experiments): 36.2815 and 49.6279 and 43.6868
IC50 ([1]; Mus musculus, Fibroblast, 3T3, 10 000 b/j, individual experiments, read-out: IC50): 0.977 µM
IC50 ([1]; Mus musculus, Fibroblast, 3T3, 10 000 b/j, mean, read-out: IC50, průměr): 1.31 µM
IC50 ([1]; Mus musculus, Fibroblast, 72 h, 3T3, 72 h/37°C, mean ± SD, n ≥ 4, read-out: IC50): 1.31 ± 0.337 µM
%Fe 30min: ascorbate oxidation as % of the Fe control (Fe 100%) ([2]; IBE 0.1, 30 min, mean (průměr)): 114.3%
Change of absorbance after subtraction of time 0 (odečet 0) ([2]; IBE 0.1, time 10, mean (průměr)): -0.04348
Change of absorbance after subtraction of time 0 (odečet 0) ([2]; IBE 0.1, time 20, mean (průměr)): -0.0765
Change of absorbance after subtraction of time 0 (odečet 0) ([2]; IBE 0.1, time 30, mean (průměr)): -0.108
Absorbance (ascorbate, λ = 265 nm) ([2]; IBE 0.1, čas 0 (time 0), mean (průměr)): 0.839
Absorbance (ascorbate, λ = 265 nm) ([2]; IBE 0.1, čas 10 (time 10), mean (průměr)): 0.7956
Absorbance (ascorbate, λ = 265 nm) ([2]; IBE 0.1, čas 20 (time 20), mean (průměr)): 0.7625
Absorbance (ascorbate, λ = 265 nm) ([2]; IBE 0.1, čas 30 (time 30), mean (průměr)): 0.731
Ascorbate oxidation, % of the control ([2]; IBE 1): significant (p < 0.001) increase
Ascorbate oxidation, % of the control ([2]; IBE 3): significant (p < 0.001) increase
%Fe 30min (ascorbate oxidation, Fe = 100%), průměr (mean) ([2]; sheet IBE 1, 30min, Fe 100%, mean): 274.4%
%Fe 30min (ascorbate oxidation, Fe = 100%), single replicates ([2]; sheet IBE 1, 30min, Fe 100%, replicates): 326.6% and 305.9% and 307.7% and 264.1% and 243.3% and 218.6% and 291.9% and 257% and 254.6%
raw reading at čas 0 (time 0), průměr (mean) ([2]; sheet IBE 1, time 0, mean of 9 readings): 0.8081
raw reading at čas 0 (time 0), single replicates ([2]; sheet IBE 1, time 0, replicates of 2014-03-24 (two runs) and 2014-03-25): 0.8198 and 0.8003 and 0.8337 and 0.8268 and 0.8308 and 0.7872 and 0.7839 and 0.7637 and 0.8272
